Source: BindingDB's records for doi:10.1021/jm970377o (Abbott Laboratories, 1998)
pEC50: −log10 of the molar value.

Assay: Compound was evaluated for functional potency and efficacy at human muscle type Nicotinic acetylcholine receptor in TE671 cells

CC(=O)C1=CC[N+](C)(C)CC1 [4-Acetyl-1,1-dimethyl-1,2,3,6-tetrahydro-pyridinium; iodide]
pEC50: 7.00
